Values quoted from earlier work, collected in US20140171436A1, “TREATMENT OF ANTIFOLATE NEUROTOXICITY” (Syntrix Biosystems, Inc., priority 2003, published 2014).
Read-outs that look alike come from different tables or passages of the source.

Legend:
[1] = in words; 'No' = none known; cited from earlier work
sigma-1 receptor = sigma-1 receptor (Homo sapiens, UniProt Q99720); details: read-out: sigma-1 affinity, cited from earlier work
[2] = Table IV, undefined agonist/antagonist activity

Sequence of sigma-1 receptor (Q99720 whole entry, species assumed): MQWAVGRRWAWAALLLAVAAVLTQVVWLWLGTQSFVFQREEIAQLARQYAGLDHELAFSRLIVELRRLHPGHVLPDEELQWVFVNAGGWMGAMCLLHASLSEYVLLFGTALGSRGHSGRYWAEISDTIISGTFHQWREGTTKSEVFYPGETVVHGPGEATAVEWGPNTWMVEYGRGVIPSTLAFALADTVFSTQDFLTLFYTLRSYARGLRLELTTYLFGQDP

Row | Compound | Other known affinity [1] | Ki (sigma-1 receptor; Table II, sigma-1 agonists) [nM] | Ki (sigma-1 receptor; Table III, sigma-1 antagonists) [nM] | Ki (sigma-1 receptor; [2]) [nM]
1 | CN(C)CCCN1c2ccccc2CCc2ccccc21 [Imipramine] | MAOI | 50 to 500 |  | 
2 | COc1ccc(N2C[C@H](CN3CCC(O)(c4ccc5c(c4)OCO5)CC3)OC2=O)cc1 [Panamesin] |  |  | < 50 | 
3 | COc1cccc2c1CCC(=O)N2CCCN1CCN(c2cccc(Cl)c2)CC1 [OPC-14523] | Sigma-2, 5HT1AR | < 50 |  | 
4 | CCCN1CCC[C@H](c2cccc(O)c2)C1 [(+)-3-PPP, R(+)-3-(3-hydroxyphenyl)-N-propylpiperidine] | Dopamine receptor |  |  | 
5 | C[C@]12CC[C@H](OS(=O)(=O)O)CC1=CC[C@@H]1[C@@H]2CC[C@]2(C)C(=O)CC[C@@H]12 [PB-008, dihydroepiandrosterone sulphate] |  | 500 to 10000 |  | 
6 | COCCN1CCN(C[C@H]2CCN(c3ccc(Cl)cc3)C2=O)CC1.O=C(O)C(O)C(O)C(=O)O [MS-377, (R)-(+)-1-(4-chlorophenyl)-3-[4-(2-methoxyethyl)piperazin-1-yl] methyl-2-pyrrolidinone L-tartrate] | No |  | < 50 | 
7 | C[C@H](Cc1ccccc1)NCCCc1ccccc1 [(−)-PPAP, R(−)-N-(3-phenyl-1-propyl)-1-phenyl-2-aminopropane] | NMDAR |  |  | 
8 | CC(=O)C1CCC2C3CC=C4CC(OS(=O)(=O)O)CCC4(C)C3CCC12C (stereo not shown) [Pregnenolone sulphate] |  | 500 to 10000 |  | 
9 | COC(=O)[C@H]1[C@@H](OC(=O)c2ccccc2)C[C@@H]2CC[C@H]1N2C [Cocaine] |  | 500 to 10000 |  | 
10 | COc1ccc(CCN2CCN(CCCc3ccccc3)CC2)cc1OC.Cl [SA4503, 1-(3,4-dimethoxyphenethyl)-4-(3-phenylpropyl) piperazine HCl] | No |  |  | 
11 | 1-(cyclopropylmethyl)-4-(2′-oxoethyl) piperidine HBr [Dup-734] | No |  | < 50 | 
12 | 2-[4-(4-methoxy-benzyl)piperazin-1-yl-methyl]4-oxo[4H]-benzo-thiazolin-2-one [S-21377] | No |  |  | < 50
13 | CCC(C/C=C/c1ccccc1)(c1ccccc1)N(C)CC1CC1 (single isomer, unassigned; (+)) [Igmesine, (+) N-cyclopropylmethyl-N-methyl-1,4-diphenyl-1-ethyl-butyl-2-N] |  | < 50 |  | 
14 | CNCCC(Oc1ccc(C(F)(F)F)cc1)c1ccccc1 (stereo not shown) [Fluoxetine] | SSRI |  |  | 
15 | OC(CN1CCC(Cc2ccc(F)cc2)CC1)c1ccc(Cl)cc1 (stereo not shown) [Eliprodil] | NMDAR polyamine site |  |  | < 50
16 | c1ccc(CN2CCN(Cc3ccc4ccccc4c3)CC2)cc1 [S-21378, 2[(4-benzylpiperazin-1-yl)mothyl] naphthalene, dichiorydrate] | No |  |  | < 50
17 | CC(C)=CCN1CCC2(C)c3cc(O)ccc3CC1C2C (single isomer, unassigned; (+)) [(+)-pentazocine] | No |  |  | 
18 | CCN(C/C=C\c1ccc(C2CCCCC2)c(Cl)c1)C1CCCCC1.Cl [SR-31747A] | C8-C7 sterol isomerase |  |  | < 50
19 | Cc1c(-c2ccccc2)oc2ccc(OCCCCCCN3CCC(O)CC3)cc2c1=O [NPC 16377, 6-[6-(4-hydroxypiperidinyl)hexyloxy]-3-methylflavone] | No |  |  | 
20 | CN(CCc1ccc(Cl)c(Cl)c1)CCN1CCCC1 [BD-1008, N-[2-(3,4-dicholophenyl)ethyl]-N-methyl-2-(1-pyrrolidinyl)ethylamine] | sigma-2 |  |  | 
